According to US9815840B2 (CJ Healthcare Corporation, priority 2013, dated 2017):

Target: c-Met (Homo sapiens (Human), UniProt P08581)
Assay: Analysis of the inhibition of c-Met activity (ADP-Glo Kinase Assay)
Assay type: biochemical
Conditions: c-Met enzyme 2 ng/μL, 250 μM G4Y1 peptide, 50 μM ATP, 1 hour at room temperature, luminescence
Protocol: Analysis of the Inhibition of c-Met Activity (ADP-Glo™ Kinase Assay
The inhibitory effect of the compounds of the present invention on the activity of c-Met was confirmed as follows.
Specifically, 250 μM G4Y1 peptide, which serves as a substrate for c-Met enzyme (2 ng/μL), and 50 μM ATP were subjected to an enzyme reaction in a reaction buffer (40 mM Tris-HCl (pH 7.5), 20 mM MgCl2, 0.1 mg/mL bovine serum albumin, and 50 μM DTT). The compounds prepared in Examples and comparative compounds were treated at various concentrations and reacted at room temperature for 1 hour, sequentially added with ADP-Glo™ Reagent and the Kinase detection reagent, and reacted at room temperature for 40 minutes and 30 minutes, respectively.
Then, luminescence of the compounds was measured using the Wallaac Victor 2™ (PerkinElmer life sciences, 1420-042). The activity of c-Met inhibitors was evaluated by analyzing the data based on the measured RLU values. The activity of c-Met inhibitors was evaluated as the percentage of remaining activity of the c-Met enzyme in the samples treated with the compounds at concentrations to be tested, with the RLU value of the sample set at 100% control group.

c-Met, sequence (P08581 25-1390): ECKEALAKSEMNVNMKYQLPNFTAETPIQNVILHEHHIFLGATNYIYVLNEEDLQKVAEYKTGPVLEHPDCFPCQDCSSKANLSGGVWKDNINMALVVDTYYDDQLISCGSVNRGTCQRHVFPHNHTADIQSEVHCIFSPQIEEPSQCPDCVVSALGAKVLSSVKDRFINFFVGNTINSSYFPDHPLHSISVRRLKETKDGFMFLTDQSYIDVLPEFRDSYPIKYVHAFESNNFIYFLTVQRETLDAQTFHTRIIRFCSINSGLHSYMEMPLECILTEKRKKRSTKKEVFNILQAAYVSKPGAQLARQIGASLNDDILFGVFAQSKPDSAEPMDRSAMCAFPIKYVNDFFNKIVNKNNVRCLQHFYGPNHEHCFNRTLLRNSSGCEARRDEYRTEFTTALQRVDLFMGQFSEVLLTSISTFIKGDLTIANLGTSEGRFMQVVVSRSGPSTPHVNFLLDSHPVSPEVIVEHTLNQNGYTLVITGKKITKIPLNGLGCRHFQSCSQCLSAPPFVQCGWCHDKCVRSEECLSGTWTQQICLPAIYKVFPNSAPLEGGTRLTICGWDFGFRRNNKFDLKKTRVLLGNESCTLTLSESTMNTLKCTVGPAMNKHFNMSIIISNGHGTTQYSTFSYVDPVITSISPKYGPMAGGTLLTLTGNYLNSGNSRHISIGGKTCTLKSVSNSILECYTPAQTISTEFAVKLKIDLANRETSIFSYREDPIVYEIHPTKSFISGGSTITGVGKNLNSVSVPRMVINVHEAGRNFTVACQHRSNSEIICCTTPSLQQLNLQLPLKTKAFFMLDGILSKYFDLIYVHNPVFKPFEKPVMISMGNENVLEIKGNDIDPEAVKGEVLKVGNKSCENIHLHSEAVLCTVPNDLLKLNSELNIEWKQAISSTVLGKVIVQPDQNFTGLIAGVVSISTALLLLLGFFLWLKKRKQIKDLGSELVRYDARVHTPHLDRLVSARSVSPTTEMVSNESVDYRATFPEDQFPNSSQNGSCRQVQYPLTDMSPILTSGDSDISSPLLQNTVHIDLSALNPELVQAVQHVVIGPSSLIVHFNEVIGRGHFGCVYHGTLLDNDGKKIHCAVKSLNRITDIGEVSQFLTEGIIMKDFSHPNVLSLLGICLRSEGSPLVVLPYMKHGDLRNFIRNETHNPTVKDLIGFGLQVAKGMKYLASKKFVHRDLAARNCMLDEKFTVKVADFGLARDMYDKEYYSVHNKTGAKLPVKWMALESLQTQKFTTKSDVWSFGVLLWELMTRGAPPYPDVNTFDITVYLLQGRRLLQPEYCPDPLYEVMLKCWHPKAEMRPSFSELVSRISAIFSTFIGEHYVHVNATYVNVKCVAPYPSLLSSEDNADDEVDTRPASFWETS

| SMILES | IC50 [µM] |
| --- | --- |
| CCOc1ccn(-c2ccc(F)cc2)c(=O)c1C(=O)Nc1ccc(Oc2ccnn3ccc(-c4ccncc4)c23)c(F)c1 [Example 7] | < 0.04 |
| CCOc1ccn(-c2ccc(F)cc2)c(=O)c1C(=O)Nc1ccc(Oc2ccnn3ccc(-c4cccc(C=O)c4)c23)c(F)c1 [Example 23, 4-ethoxy-N-(3-fluoro-4-((5-(3-formylphenyl)pyrrolo[1,2-b]pyridazin-4-yl)oxy)phenyl)-1-(4-fluorophenyl)-2-oxo-1,2-dihydropyridin-3-carboxamide] | < 0.04 |
| O=C(Nc1ccc(Oc2ccnn3ccc(-c4cccc(CO)c4)c23)c(F)c1)c1cccn(-c2ccc(F)cc2)c1=O [Example 29] | < 0.04 |
| CCOc1ccn(-c2ccc(F)cc2)c(=O)c1C(=O)Nc1ccc(Oc2ccnn3ccc(-c4cccc(C(C)(C)O)c4)c23)c(F)c1 [Example 43, 4-ethoxy-N-(3-fluoro-4-((5-(3-(2-hydroxypropan-2-yl)phenyl)pyrrolo[1,2-b]pyridazin-4-yl)oxy)phenyl)-1-(4-fluorophenyl)-2-oxo-1,2-dihydropyridin-3-carboxamide] | < 0.04 |
| CCOc1ccn(-c2ccc(F)cc2)c(=O)c1C(=O)Nc1ccc(Oc2ccnn3ccc(-c4cccc(C(C)O)c4)c23)c(F)c1 (centres unmarked) [Example 46, 4-ethoxy-N-(3-fluoro-4-((5-(3-(1-hydroxyethyl)phenyl)pyrrolo[1,2-b]pyridazin-4-yl)oxy)phenyl)-1-(4-fluorophenyl)-2-oxo-1,2-dihydropyridin-3-carboxamide] | < 0.04 |
| CC(O)c1cccc(-c2ccn3nccc(Oc4ccc(NC(=O)c5cccn(-c6ccc(F)cc6)c5=O)cc4F)c23)c1 (centres unmarked) [Example 47, N-(3-fluoro-4-((5-(3-(1-hydroxyethyl)phenyl)pyrrolo[1,2-b]pyridazin-4-yl)oxy)phenyl)-1-(4-fluorophenyl)-2-oxo-1,2-dihydropyridin-3-carboxamide] | < 0.04 |
| CCOc1ccn(-c2ccc(F)cc2)c(=O)c1C(=O)Nc1ccc(Oc2ccnn3ccc(-c4cccc(CN5CCOCC5)c4)c23)c(F)c1 [Example 49] | < 0.04 |
| CCOc1ccn(-c2ccc(F)cc2)c(=O)c1C(=O)Nc1ccc(Oc2ccnn3ccc(-c4cccc(C(=O)N5CCOCC5)c4)c23)c(F)c1 [Example 50, 4-ethoxy-N-(3-fluoro-4-((5-(3-morpholin-4-carbonylphenyl)pyrrolo[1,2-b]pyridazin-4-yl)oxy)phenyl)-1-(4-fluorophenyl)-2-oxo-1,2-dihydropyridin-3-carboxamide] | < 0.04 |
| CCOc1ccn(-c2ccc(F)cc2)c(=O)c1C(=O)Nc1ccc(Oc2ccnn3ccc(-c4cccc(N)c4)c23)c(F)c1 [Example 53, 4-ethoxy-N-(3-fluoro-4-((5-(3-aminophenyl)pyrrolo[1,2-b]pyridazin-4-yl)oxy)phenyl)-1-(4-fluorophenyl)-2-oxo-1,2-dihydropyridin-3-carboxamide] | < 0.04 |
| CCOc1ccn(-c2ccc(F)cc2)c(=O)c1C(=O)Nc1ccc(Oc2ccnn3ccc(-c4cccc(CN(C)C)c4)c23)c(F)c1 [Example 56, N-(4-((5-(3-((dimethylamino)methyl)phenyl)pyrrolo[1,2-b]pyridazin-4-yl)oxy)-3-fluorophenyl)-4-ethoxy-1-(4-fluorophenyl)-2-oxo-1,2-dihydropyridin-3-carboxamide] | < 0.04 |
| Cc1ccc(-c2ccn3nccc(Oc4ccc(NC(=O)C5(C(=O)Nc6ccc(F)cc6)CC5)cc4F)c23)cc1N [Example 78] | < 0.04 |
| Cc1c(N)cccc1-c1ccn2nccc(Oc3ccc(NC(=O)C4(C(=O)Nc5ccc(F)cc5)CC4)cc3F)c12 [Example 79] | < 0.04 |
| COc1ccc(-c2ccn3nccc(Oc4ccc(NC(=O)C5(C(=O)Nc6ccc(F)cc6)CC5)cc4F)c23)cc1N [Example 82] | < 0.04 |
| Nc1ccc(F)c(-c2ccn3nccc(Oc4ccc(NC(=O)C5(C(=O)Nc6ccc(F)cc6)CC5)cc4F)c23)c1 [Example 83] | < 0.04 |
